{"source": "paper PMC7699860", "about": "(Molecules, 2020)", "key": {"[1]": {"tested_on": "poly(A)poly(U) (RNA, polymer) A/U", "assay": "absorbance titration", "details": "Na+ (NaCl 0.1 M), NaCac 2.5 mM"}, "[2]": {"tested_on": "poly(A)2poly(U) (RNA triple helix) (RNA, polymer) A/U", "assay": "absorbance titration", "details": "Na+ (NaCl 0.1 M); NaCac 2.5 mM, pH 7.0"}, "[3]": {"tested_on": "Tel-23 (DNA telomeric G4) (DNA, G4) TAGGGTTAGGGTTAGGGTTAGGG", "assay": "absorbance titration"}, "poly(A) (RNA, polymer) A": {"tested_on": "poly(A) (RNA, polymer) A", "assay": "absorbance titration", "details": "Na+ (NaCl 0.1 M), NaCac 2.5 mM, pH 7.0"}, "[4]": {"target": "T1, bovine serum albumin (BSA) (Bos taurus, UniProt P02769)", "T1 construct": "gene ALB", "T1 sequence (P02769 25-607)": "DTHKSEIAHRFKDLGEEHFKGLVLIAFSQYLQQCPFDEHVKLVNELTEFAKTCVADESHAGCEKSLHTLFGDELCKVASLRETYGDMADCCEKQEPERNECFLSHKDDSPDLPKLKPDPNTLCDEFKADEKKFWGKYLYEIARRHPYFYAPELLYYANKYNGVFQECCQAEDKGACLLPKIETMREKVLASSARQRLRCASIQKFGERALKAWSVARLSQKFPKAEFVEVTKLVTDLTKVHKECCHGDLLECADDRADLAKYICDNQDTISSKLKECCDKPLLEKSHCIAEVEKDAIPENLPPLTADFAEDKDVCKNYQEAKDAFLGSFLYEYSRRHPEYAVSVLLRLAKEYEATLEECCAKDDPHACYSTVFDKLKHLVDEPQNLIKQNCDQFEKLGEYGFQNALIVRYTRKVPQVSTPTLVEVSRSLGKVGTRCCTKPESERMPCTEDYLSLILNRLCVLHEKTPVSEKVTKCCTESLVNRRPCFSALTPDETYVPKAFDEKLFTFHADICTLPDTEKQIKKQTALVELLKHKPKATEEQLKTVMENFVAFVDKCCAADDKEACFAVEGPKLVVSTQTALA", "assay": "BSA intrinsic fluorescence quenching titration ([…] °C), […] model; no adduct by ESI-MS", "assay_type": "binding"}}, "data": [{"molecule": "CCN1[C]N(Cc2c3ccccc3cc3ccccc23)C=C1.CCN1[C]N(Cc2c3ccccc3cc3ccccc23)C=C1.[Ag+]", "values": [{"measurement": "Kpoly(A)poly(U)", "setting": "[1]; pH 7.0, 25.0 °C, apparent, per base pair, per base", "result": "(1.5 ± 3) × 10^3 M^-1"}, {"measurement": "binding", "setting": "[2]", "result": "no"}, {"measurement": "binding", "setting": "[3]; very slight spectral variations, conclusions state no interaction", "result": "weak"}, {"measurement": "binding", "setting": "poly(A) (RNA, polymer) A", "result": "no"}]}, {"molecule": "CCN1[C]N(Cc2c3ccccc3cc3ccccc23)C=C1.CCN1[C]N(Cc2c3ccccc3cc3ccccc23)C=C1.[Au+]", "values": [{"measurement": "binding", "setting": "[1]; pH 7.0, external binding, fit not converging", "result": "yes"}, {"measurement": "binding", "setting": "[3]; unselective outer binding, fit not converging", "result": "yes"}, {"measurement": "binding", "setting": "poly(A) (RNA, polymer) A; external binding, fit not converging", "result": "yes"}]}, {"molecule": "CCn1ccn(Cc2c3ccccc3cc3ccccc23)[c]1=[Ag]([Cl])=[c]1n(CC)ccn1Cc1c2ccccc2cc2ccccc12", "note": "[[Ag(EIA)2]Cl, bis(1-(anthracen-9-ylmethyl)-3-ethylimidazol-2-ylidene) silver chloride]", "values": [{"measurement": "BSA intrinsic fluorescence quenching titration (15-50 °C), 1:1 model; no adduct", "setting": "[4]", "result": "the silver complex interacts with the protein but with a reversible weak process based on electrostatics"}]}]}
